Reference: patent US20030031715A1, “Pharmaceutical applications of hydrotropic agents, polymers thereof, and hydrogels thereof” (priority 2000, published 2003)
In brackets after ≈: the same amount, converted by molar mass.

Tests used:
Experiment in all cases: Antitumor cytotoxicity GI50, MTT bioassay
Assay type in all cases: cell-based
MCF-7 = details: Homo sapiens, MCF7, MCF-7 (breast)
Description: (§1) Purdue Cancer Center Cell Culture Laboratory has provided bioassay service for measuring antitumor cytotoxicity for many years. […] The standard bioassay is done in 96-well microtiter plates using MTT [3-(4,5-dimethylthiazole-2-yl)-2,5-diphenytetrazolium bromide]. MTT is cleaved in the mitochondria of live cells to produce a dark blue formazan product. […] Adriamycin is used as an internal reference antitumor agent for the quality control of the standardized cytotoxicity assay.
(§2) The results of cytotoxicity evaluations are compared with those of animal experiments to examine what formulations were optimal for each experiment.

HT-29 = details: Homo sapiens, HT-29 (colon)
Description: as §1, §2

PaCa-2 = details: Homo sapiens, PaCa-2 (pancreas)
Description: as §1, §2

A-498 = details: Homo sapiens, A498, A-498 (kidney)
Description: as §1, §2

A-549 = details: Homo sapiens, A549, A-549 (lung)
Description: as §1, §2

PC-3 = details: Homo sapiens, PC-3 (prostate)
Description: as §1, §2

SMILES: COc1cccc2c1C(=O)c1c(O)c3c(c(O)c1C2=O)C[C@@](O)(C(=O)CO)C[C@@H]3O[C@H]1C[C@H](N)[C@H](O)[C@H](C)O1 [Adriamycin]
- GI50 (MCF-7): 0.2 µg/mL (≈ 0.368 µM)
- GI50 (HT-29): 0.03 µg/mL (≈ 0.0552 µM)
- GI50 (PaCa-2): 0.005 µg/mL (≈ 0.0092 µM)
- GI50 (A-498): 0.005 µg/mL (≈ 0.0092 µM)
- GI50 (A-549): 0.005 µg/mL (≈ 0.0092 µM)
- GI50 (PC-3): 0.02 µg/mL (≈ 0.0368 µM)
